Reference: US20120015967A1, “PYRIMIDINE AND PYRIDINE DERIVATIVES AS POSH AND POSH-AP INHIBITORS” (PROTEOLOGICS, LTD., priority 2007, published 2012)
Read-outs that look alike come from different tables or passages of the source.

What was measured:
HIV-2ROD = test: HIV cytoprotection assay, CEM-SS cells infected with HIV-2ROD (MTS); type: cell-based
Procedure: (§1) For the HIV cytoprotection assay, CEM-SS cells were used and the viruses HIV-1IIIB, HIV-1RF, or HIV-2ROD.
(§2) Briefly, virus and cells were mixed in the presence of a test compounds and incubated for 6 days. […] Each assay plate contained the following controls: cell control wells (cells only), virus control wells (cells plus virus), compound toxicity control wells (cells plus compound only), compound colorimetric control wells (compound only), as well as the experimental wells (compound plus cells plus virus). Cytoprotection and compound cytotoxicity were assessed by MTS (CellTiter® 96 Reagent, Promega, Madison Wis.) dye reduction, and the IC50 (concentration inhibiting virus replication by 50%), TC50 (concentration resulting in 50% cell death) and a calculated T1 (therapeutic index TC50/IC50) were obtained. Each assay included the HIV reverse transcriptase inhibitor AZT as a positive control.

[1] = Compound cytotoxicity on uninfected CEM-SS cells (MTS); type: cell-based; conditions: human, read-out: TC50 (concentration resulting in 50% cell death)
Procedure: as §2

HIV-1IIIB = test: HIV cytoprotection assay, CEM-SS cells infected with HIV-1IIIB (MTS); type: cell-based; conditions: for IC50: read-out: IC50 (concentration inhibiting virus replication by 50%)
Procedure: as §1, §2

hPOSH = target: T1, hPOSH (Homo sapiens, UniProt Q7Z6J0); test: HTS TR-FRET assay of POSH autoubiquitination; type: biochemical; conditions: in vitro TR-FRET, GST tagged hPOSH with E1 and UbcH5c; read-out: IC50, inhibition of POSH autoubiquitination
T1 construct: a fused GST-RING subunit of POSH protein and two fluorophore-conjugated detection reagents
T1 sequence (Q7Z6J0 12-53 limits assumed): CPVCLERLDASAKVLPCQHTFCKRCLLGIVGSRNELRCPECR
Procedure: In order to test compounds as inhibitors of POSH, a ubiquitin protein ligase (E3) containing a RING domain that mediates its own ubiquitination in a RING finger-dependent manner in the presence of E1 and E2, a HTS (high-throughput screening) homogeneous TR-FRET (Time-Resolved Fluorescence Resonance Energy Transfer) assay was conducted to monitor POSH autoubiquitination.
The assay employs an ubiquitin-activating enzyme (E1) and an ubiquitin-conjugating enzyme (E2), a fused GST-RING subunit of POSH protein and two fluorophore-conjugated detection reagents, namely anti-GSTXL665 and europium cryptate-labeled ubiquitin. This homogeneous assay is based on FRET between a Eu^3+ cryptate donor and a second fluorescent label (acceptor), allophycocyanin. Allophycocyanin, a 105 kDa phycobiliprotein, is crosslinked to ensure its stability.
The ubiquitination of POSH by ubiquitin cryptate and binding of the anti-GST tagged XL665 brings the fluorophores into close proximity allowing FRET reaction to occur (see diagram).
Self-ubiquitination of hPOSH was determined by homogenous time-resolved fluorescence resonance energy transfer assay (TR-FRET). […]
where: S=actual fluorescence, B=Fluorescence obtained in parallel incubation without cb1-b, C=Fluorescence obtained in reaction without added compounds. […]

HIV-1 = test: Assay for virus release (HIV-1 p24 / VLP release) in Jurkat cells transfected with pNLenv1; type: cell-based; conditions: Human immunodeficiency virus 1, 24 h, VLP release one day after transfection, anti-CA immunoblot
Procedure: The POSH inhibitor Compound 1 was tested for its efficiency of viral budding and GAG expression and processing in treated and untreated Jurkat cells. The concentration of extracellular GAG p24 was used as an indication of viral budding.
Jurkat cells were incubated with Compound 1 for either 1 or 3 days. The next day, cells were transfected with the plasmid pNLenv1 (2 μg/ml). Virus-like particle (VLP) release was determined one day after transfection as follows: the culture medium of virus-expressing cells was collected and centrifuged at 500×g for 10 minutes. The resulting supernatant was passed through a 0.45 μm-pore filter and the filtrate was centrifuged at 14,000×g for 2 hours at 4° C. The corresponding cells were washed three times with phosphate-buffered saline (PBS) and then solubilized by incubation on ice for 15 minutes in lysis buffer containing the following components: 50 mM Hepes-NaOH, (pH 7.5), 150 mM NaCl, 1.5 mM MgCl2, 0.5% NP-40, 0.5% sodium deoxycholate, 1 mM EDTA, 1 mM EGTA and 1:200 dilution of protease inhibitor cocktail (EMD Biosciences, Inc.). […] The CA was detected after incubation with a secondary anti-rabbit horseradish peroxidase-conjugated antibody, and detected by Enhanced Chemi-Luminescence (ECL) (Amersham Biosciences, Corp.) and detected by fluorescence imaging (Typhoon Instrument, Amersham Biosciences, Corp.). […]

Cc1cc(C)nc(NS(=O)(=O)c2cc(Cl)ccc2Cl)c1 [Compound 2, 2,5-dichloro-N-(4,6-dimethylpyridin-2-yl)benzenesulfonamide]
Antiviral Index (TI), TC50/IC50 (HIV-2ROD): 3.80
IC50 (HIV-2ROD; Human immunodeficiency virus 2, 144 h, 6 days, read-out: IC50 (concentration inhibiting virus replication by 50%)): 44.4 µM
CC50 at 6 days ([1]; Table 1 (HIV-1IIIB experiment)): 114 µM
CC50 at 6 days ([1]; Table 2 (HIV-2ROD experiment)): 169 µM
Antiviral Index (TI), TC50/IC50 (HIV-1IIIB; HIV-1IIIB, CEM-SS cells): 28.5
IC50 (HIV-1IIIB; Human immunodeficiency virus 1, 144 h, HIV-1IIIB, CEM-SS cells, 6 days): 3.99 µM

Cc1cc(C)nc(NS(=O)(=O)c2cc(Cl)ccc2Cl)n1 [Compound 1, 2,5-dichloro-N-(4,6-dimethylpyrimidin-2-yl)benzenesulfonamide]
IC50 (hPOSH): 12 µM
CC50 at 6 days ([1]; Table 1 (HIV-1IIIB experiment)): > 100 µM
IC50 (HIV-1): 100 µM
Antiviral Index (TI), TC50/IC50 (HIV-1IIIB; HIV-1IIIB, CEM-SS cells): >1.61
IC50 (HIV-1IIIB; Human immunodeficiency virus 1, CEM-SS, 144 h): 62 µM
